US8012959B2, “Diaminopyrimidinecarboxamide derivative” (Astellas Pharma Inc., priority 2002, dated 2011)

Columns and labels:
STAT 6 = biological target: T1, STAT 6 (Homo sapiens, UniProt P42226); assay: STAT 6 tyrosine phosphorylation in IL-4-stimulated H292 cell (western blotting); type: cell-based; conditions: 1 μM compound, 10 ng/ml human IL-4, disappearance of the about 110 kDa band
T1 construct: host or cells: H292
T1 sequence (P42226 1-847): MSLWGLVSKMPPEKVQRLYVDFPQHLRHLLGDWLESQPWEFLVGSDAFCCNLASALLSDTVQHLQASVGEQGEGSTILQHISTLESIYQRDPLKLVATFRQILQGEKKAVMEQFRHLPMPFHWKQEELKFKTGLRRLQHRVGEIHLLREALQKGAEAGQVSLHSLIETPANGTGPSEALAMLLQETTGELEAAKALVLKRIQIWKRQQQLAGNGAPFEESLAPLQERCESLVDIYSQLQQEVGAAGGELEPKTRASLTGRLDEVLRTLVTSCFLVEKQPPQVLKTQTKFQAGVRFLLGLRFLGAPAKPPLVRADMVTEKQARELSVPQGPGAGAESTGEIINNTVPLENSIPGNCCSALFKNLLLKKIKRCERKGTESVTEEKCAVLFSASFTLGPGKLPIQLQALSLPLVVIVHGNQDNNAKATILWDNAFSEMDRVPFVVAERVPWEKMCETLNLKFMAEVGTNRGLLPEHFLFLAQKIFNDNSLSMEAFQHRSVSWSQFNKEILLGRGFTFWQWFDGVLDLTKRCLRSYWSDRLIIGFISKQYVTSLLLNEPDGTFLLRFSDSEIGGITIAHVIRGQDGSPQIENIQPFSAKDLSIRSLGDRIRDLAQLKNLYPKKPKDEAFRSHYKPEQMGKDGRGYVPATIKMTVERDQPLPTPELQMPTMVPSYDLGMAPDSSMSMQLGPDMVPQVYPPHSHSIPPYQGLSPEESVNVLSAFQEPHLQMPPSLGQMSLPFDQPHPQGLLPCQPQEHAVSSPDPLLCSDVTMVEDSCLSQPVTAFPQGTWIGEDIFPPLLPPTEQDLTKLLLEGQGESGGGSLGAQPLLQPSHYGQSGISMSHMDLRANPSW
Description: Measurement of STAT 6 Tyrosine Phosphorylation
The H292 cell (ATCC) (5×10^5 cells/0.5 ml) was inoculated into a 12 well plate (IWAKI) and cultured overnight, and then stimulation with 10 ng/ml of human IL-4 (Genzyme techne) was carried out. In the case of the evaluation of compounds, compound dilutions were added to the wells 20 minutes before the IL-4 stimulation. Also, regarding the dilution of compounds, dilution was carried out using 10% FBS-containing RPMI 1640 such that the final concentration of DMSO in which each compound was dissolved became 0.1% or less. This was washed three times with ice-cooled physiological phosphate buffer 20 minutes after the IL-4 stimulation. After the washing, 100 μl/well of a cell lysis solution (TNE buffer: 10 mM Tris-HCl pH 7.8, 1% NP-40, 0.15 M NaCl, 1 mM EDTA, 10 μg/ml aprotinin, 1 mM NaF and 1 mM Na3VO4) was added. The cell lysate was recovered, and 15 μl thereof was subjected to western blotting after SDS electrophoresis using an anti-tyrosine phosphorylated STAT 6 antibody (Cell Signaling). Whether or not the tyrosine phosphorylation band of about 110 kDa is disappeared, which is IL-4 stimulation-dependently detected, was judged. Also, uniform transference of the STAT 6 protein was confirmed using the same transfer membrane by western blotting which used an anti-STAT 6 antibody (SantaCruz).

[1] = tested on: antigen-induced eosinophil infiltration; assay: Mouse asthma model (OA-sensitized, antigen-induced eosinophil infiltration in alveolar lavage fluid); type: in vivo; conditions: hydrochloride, oral administration, 1 mg/kg, for 3 days, female Balb/c mice
Description: Evaluation Using Mouse Asthma Model
Active sensitization of female Balb/c mice were carried out by intraperitoneally administering ovalbumin (OA) and an adjuvant, aluminum hydroxide gel (alum), twice. Mice were exposed to OA by inhalation 12 days after the initial sensitization and sacrificed by bloodletting 72 hours after the exposure, and then alveolar lavage was carried out. A compound to be tested or a control, 0.5% methyl cellulose, was orally administered for 3 days from before the OA exposure to before the alveolar lavage. After the measurement of total white blood cell count in the alveolar lavage fluid, cell smear preparations were stained to calculate existing ratio of eosinophil based on its morphological characteristics. The total number of eosinophils was calculated from the total white blood cell count and existing ratio of respective kinds of cells.

neutrophil infiltration = assay: SO2 gas-induced intra-alveolar neutrophil infiltration model; type: in vivo; conditions: hydrochloride, oral administration, 10 mg/kg, for 2 days, male C57BL/6 mice, SO2 gas 600 ppm, alveolar lavage fluid
Description: Evaluation Using SO2 Gas-induced Intra-alveolar Neutrophil Infiltration Model Mouse Asthma Model
Male C57BL/6 mice were exposed to SO2 gas (600 ppm) for 3 hours and sacrificed by bloodletting 48 hours after the exposure, and then alveolar lavage was carried out. After the measurement of total white blood cell count in the alveolar lavage fluid, cell smear preparations were stained to calculate existing ratio of neutrophil based on its morphological characteristics. The number of neutrophils was calculated from the total white blood cell count and existing ratio of respective cells. A compound to be tested or a control, 0.5% methyl cellulose, was orally administered for 2 days from just before the exposure or just after the exposure to before the alveolar lavage.

Structure (SMILES) | inhibition of STAT 6 tyrosine phosphorylation (STAT 6) | inhibition of antigen-induced eosinophil infiltration [1] | inhibition of neutrophil infiltration (neutrophil infiltration)
NC(=O)c1cnc(Nc2ccc(N3CCOCC3)cc2)nc1NCc1ccccc1 [Example 3, 4-benzylamino-2-{[4-(morpholin-4-yl)phenyl]amino}pyrimidine-5-carboxamide] | completely inhibited | about 60% | about 70%
COc1ccccc1CNc1nc(Nc2ccc(N3CCOCC3)cc2)ncc1C(N)=O [Example 35] | completely inhibited |  | 
Cc1cccc(Nc2nc(NCCc3ccc(O)c(Cl)c3)ncc2C(N)=O)c1 [Production Example 99] | completely inhibited |  | 
